# According to patent publication US6855728B2, “Small-molecule modulators of hepatocyte growth factor / scatter factor activities” (North Shore-Long Island Jewish Health System, priority 2001, dated 2005):
# Key:
# [1] = system: Endothelial cells (HUVECs); test: Endothelial cell (HUVEC) proliferation assay, 3H thymidine incorporation, compound without added growth factor; type: cell-based, human; settings: for Activity at 2 microgram/ml Without HGF/SF: stimulation: stimulation of HUVEC proliferation
# Protocol: Cell proliferation assays Endothelial cells (HUVECs) were seeded in 48 well plates at a density of 10,000 to 20,000 cells per well in the normal growth medium (EGM-2-Clonetics) containing 2% fetal bovine serum, FGF, VEGF, IGF, ascorbic acid, EGF, GA, heparin and hydrocortisone. The cells were grown normally in the growth medium for 24 hr at 37 degrees C. and 5% CO2. The cells were then rinsed with RPMI-1% BSA and starved for 1-2 hrs. The stock solutions of all the compounds were made at a concentration of 10 mg/ml in DMSO and diluted in RPMI-1% BSA at a final concentrations of 1 to 12 microgram/ml. The cells were then washed and treated with the compounds and incubated for another 24 hr at 37 degrees C. Then ^3H thymidine (0.5 microgram/ml in RPMI-BSA) was added to the cells and incubated at 37 degrees C. for 4 to 5 hours. The unincorporated thymidine was removed by washing the cells four times with 1× PBS. Then the cells were lysed with 0.5M NaOH for 30 min and the radioactivity counted in the beta counter. […]
# [2] = system: MDCK cells exposed to adriamycin; test: Anti-apoptotic activity assay (MTT viability, adriamycin-induced apoptosis); type: cell-based
# [3] = system: VEGF-like activity; test: Screen for VEGF-like activity in a standard assay; type: cell-based; settings: for VEGF-like activity: 2 microgram/ml compound
# Text: Compounds were screened for VEGF-like activity in a standard assay using 2 microgram/ml compound.
# [4] = system: DU145 cells; test: Clonogenic assay; type: cell-based; settings: clonogenic assay over 7 days
# Protocol: The effect of (4-(2-chloro-6-fluorobenzyl)-3,5-dimethyl-1H-pyrazole-1-yl)(3-(2,6-dichlorophenyl)-5-methylisoxazol-4-yl)methanone (FIG. 7) and 1-(4-chloro-3-methylphenyl)-3-(2,6-dichlorophenyl)-prop-2-en-1-one were evaluated in a clonogenic assay over 7 days.
# [5] = system: HGF/SF induced proliferation of HUVEC; test: Endothelial cell (HUVEC) proliferation assay in the presence of exogenously-added HGF/SF; type: cell-based, human; settings: with HGF/SF; for inhibition at 2 µg/mL / inhibition at 6 µg/mL: Homo sapiens; for inhibition at 2 µg/mL: read-out: Activity at 2 microgram/ml With HGF/SF: inhibition (blocked SF); for inhibition at 6 µg/mL: read-out: Activity at 6 microgram/ml With HGF/SF: inhibition (blocked SF); for Stimulation at 6-12 micrograms/ml With: stimulation of endothelial cell proliferation
# Text: To evaluate inhibitors of activity, compounds may be evaluated directly for anti-proliferative activities, such as the inhibition of cellular proliferation, inhibition of tumor growth, inhibition of scatter, and inhibition of gene expression, and may also be evaluated on their ability to inhibit activity when exposed to cells together with. In such instances, the scatter and/or proliferative activities induced by added will be inhibited by the attendant presence of an inhibitory compound of the invention.
# Cell proliferation assays Endothelial cells (HUVECs) were seeded in 48 well plates at a density of 10,000 to 20,000 cells per well in the normal growth medium (EGM-2-Clonetics) containing 2% fetal bovine serum, FGF, VEGF, IGF, ascorbic acid, EGF, GA, heparin and hydrocortisone. The cells were grown normally in the growth medium for 24 hr at 37 degrees C. and 5% CO2. The cells were then rinsed with RPMI-1% BSA and starved for 1-2 hrs. The stock solutions of all the compounds were made at a concentration of 10 mg/ml in DMSO and diluted in RPMI-1% BSA at a final concentrations of 1 to 12 microgram/ml. The cells were then washed and treated with the compounds and incubated for another 24 hr at 37 degrees C. Then ^3H thymidine (0.5 microgram/ml in RPMI-BSA) was added to the cells and incubated at 37 degrees C. for 4 to 5 hours. The unincorporated thymidine was removed by washing the cells four times with 1× PBS. Then the cells were lysed with 0.5M NaOH for 30 min and the radioactivity counted in the beta counter.
# [6] = system: growth of blood vessels from subcutaneous tissue into Matrigel; test: In vivo blood vessel ingrowth assay (Matrigel); settings: mice, Matrigel mixed with compound injected subcutaneously, 10 days
# Protocol: Angiogenesis was assayed as growth of blood vessels from subcutaneous tissue into a solid gel of basement membrane containing the test compound. Matrigel in liquid form (0.5 ml) was mixed with a compound of the invention, or basic fibroblast growth factor as a control, and injected into the abdominal subcutaneous tissue of mice as previously described (Kibbey, M. C., Grant, D. S. Auerbach, R. and Kleinman, H. K. [1992] Role of the SIKVAV site of laminin in promotion of angiogenesis and tumor growth: an in vivo Matrigel model. J. Natl. Can. Inst. 84, 1633-38). After 10 days, mice were sacrificed and the Matrigel plugs were removed, fixed, sectioned, stained and examined for ingrowth of blood vessels.
# [7] = 2 microgram/ml, inhibition of HUVEC proliferation
# [8] = 6 microgram/ml, inhibition of HUVEC proliferation
# [9] = without HGF/SF, stimulation of endothelial cell proliferation
compound,measurement,setting,value
"HGF/SF: hepatocyte growth factor/scatter factor, pleiotropic growth factor; evaluated as a positive control","effect on HUVEC proliferation, substance alone (FIG. 5)",[1],increases the proliferation of HUVEC
same,protection from adriamycin-induced apoptosis,[2]; MDCK cells,94%
same,"cell viability, substance alone",[2]; without adriamycin,unchanged
"CN(C)c1nc(-c2ccccc2)nc(-c2ccc(Cl)cc2)c1C#N [VC14, 4-(4-chlorophenyl)-6-(dimethylamino)-2-phenyl-5-pyrimidinecarbonitrile]",VEGF-like activity,[3],positive activity
"COc1cccc2c1C(=O)c1c(O)c3c(c(O)c1C2=O)C[C@@](O)(C(=O)CO)C[C@@H]3O[C@H]1C[C@H](N)[C@H](O)[C@H](C)O1 [Adriamycin, reference compound]",cell viability,[2]; Adriamycin (15 µM),56 % of control
"Cc1nn(C(=O)c2c(-c3c(Cl)cccc3Cl)noc2C)c(C)c1Cc1c(F)cccc1Cl [(4-(2-chloro-6-fluorobenzyl)-3,5-dimethyl-1H-pyrazole-1-yl)(3-(2,6-dichlorophenyl)-5-methylisoxazol-4-yl)methanone]",Activity at 2 microgram/ml Without HGF/SF (result in words),[1]; without HGF/SF,No effect
same,DU145 cell growth,[4],dose responsive inhibition
same,inhibition at 2 µg/mL,[5]; [7],40 to 90%
same,inhibition at 6 µg/mL,[5]; [8],50 to 100%
same,ingrowth of blood vessels into Matrigel plug,[6],significant stimulation of blood vessel ingrowth
c1ccc(-c2cc(-c3ccccc3)c(-c3ccccc3)c(-c3ccccc3)c2-c2ccccc2)cc1 [pentaphenylbenzene],Stimulation at 6-12 micrograms/ml Without HGF/SF,[1]; [9],two to three fold stimulation
same,Inhibition at 6-12 micrograms/ml With,"[5]; 6-12 micrograms/ml, inhibition of endothelial cell proliferation",50% inhibition
"c1ccc(-c2cc(-c3ccccc3)cc(-c3ccccc3)c2)cc1 [1,3,5-triphenylbenzene]",Stimulation at 6-12 micrograms/ml Without HGF/SF,[1]; [9],40-60% stimulation
same,Stimulation at 6-12 micrograms/ml With,[5]; 6-12 micrograms/ml,two fold stimulation
O=C(C=Cc1ccc(Br)cc1)c1ccccc1 [3-(4-Bromophenyl)-1-phenylprop-2-en-1-one],Stimulation at 1 ug/ml Without HGF/SF,"[1]; 1 ug/ml, without HGF/SF, stimulation of endothelial cell proliferation",40-80% stimulation at 1
same,Stimulation/Inhibition at 6-12 micrograms/ml With (result in words),[5]; 6-12 micrograms/ml,some additive effect
"Cc1onc(-c2c(Cl)cccc2Cl)c1C(=O)NNc1c(Cl)cc(Cl)cc1Cl [N′4-(2,4,6-trichlorophenyl)-3-3(2,6-dichlorophenyl)-5-methylisoxazole-4-carbohydrazide]",Activity at 2 microgram/ml Without HGF/SF (result in words),[1]; without HGF/SF,No effect
same,Activity at 6 microgram/ml Without HGF/SF (result in words),"[1]; 6 microgram/ml, without HGF/SF",No effect
same,Activity at 2 microgram/ml With HGF/SF (result in words),[5]; 2 microgram/ml,No effect
same,Activity at 6 microgram/ml With HGF/SF: inhibition (blocked SF),[5]; [8],60%
VEGF,activity of VEGF in the VEGF-like activity assay,[3],1259±104 cpm
"C(=C1CCCc2c(-c3ccccc3)cc(-c3ccccc3)pc21)c1ccccc1 (stereo not drawn) [8-Benzyledene-2,4 Diphenyl-5,6,7,8 Tetrahydrophosphinoline]",Activity at 1 ug/ml concentration Without HGF/SF (result in words),"[1]; 1 ug/ml, without HGF/SF",no significant effect
same,Activity at 1 ug/ml concentration With HGF/SF: inhibition,"[5]; 1 ug/ml, inhibition of endothelial cell proliferation",40% inhibition
"Cc1nn(C(=O)c2c(Cl)cccc2Cl)c(C)c1Cc1c(F)cccc1Cl [(4-(2-chloro-6-fluorobenzyl)-3,5-dimethyl-1H-pyrazole-1-yl)(2,6-dichlorophenyl)methanone]",Activity at 2 microgram/ml Without HGF/SF (result in words),[1]; without HGF/SF,not significant
same,Activity at 6 microgram/ml Without HGF/SF (result in words),"[1]; 6 microgram/ml, without HGF/SF",not significant
same,inhibition at 2 µg/mL,[5]; [7],23%
same,inhibition at 6 µg/mL,[5]; [8],90%
"Cc1nn(S(=O)(=O)c2ccc(Cl)cc2)c(C)c1Cc1c(Cl)cccc1Cl [1-((4-chlorophenyl)sulfonyl)-4-(2,6-dichlorobenzyl)-3,5-dimethyl-1H-pyrazol]",Activity at 2 microgram/ml Without HGF/SF (result in words),[1]; without HGF/SF,No effect
same,Activity at 6 microgram/ml Without HGF/SF (result in words),"[1]; 6 microgram/ml, without HGF/SF",No effect
same,Activity at 2 microgram/ml With HGF/SF (result in words),[5]; 2 microgram/ml,No effect
same,inhibition at 6 µg/mL,[5]; [8],50%
"CCOC(CC(=O)NNC(=O)c1c(-c2c(Cl)cccc2Cl)noc1C)OCC [N′4-(3,3-diethoxypropanoyl)-3-(2,6-dichlorophenyl)-5-methylisoxazole-4-carbohydrazide]",Activity at 2 microgram/ml Without HGF/SF (result in words),[1]; without HGF/SF,No effect
same,Activity at 6 microgram/ml Without HGF/SF (result in words),"[1]; 6 microgram/ml, without HGF/SF",No effect
same,Activity at 2 microgram/ml With HGF/SF (result in words),[5]; 2 microgram/ml,No effect
same,inhibition at 6 µg/mL,[5]; [8],35%
"Cc1onc(-c2c(Cl)cccc2Cl)c1C(=O)NNC(=O)CON=Cc1ccc(Cl)cc1Cl [N′4-(2-(((2,4-dichlorobenzylidene)amino)oxy)acetyl)-3-(2,6-dichlorophenyl)-5-methylisoxazole-4-carbohydrazide]",Activity at 2 microgram/ml Without HGF/SF: stimulation,[1]; without HGF/SF,32%
same,Activity at 6 microgram/ml Without HGF/SF (result in words),"[1]; 6 microgram/ml, without HGF/SF",No effect
same,Activity at 2 microgram/ml With HGF/SF: stimulation,"[5]; 2 microgram/ml, stimulation of HUVEC proliferation",30%
same,Activity at 6 microgram/ml With HGF/SF (result in words),[5]; 6 microgram/ml,No effect
"O=C1c2ccccc2N(c2ccccc2)C(=O)C1(Br)Br [VC8, 3,3-dibromo-1-phenyl-1,2,3,4-tetrahydroquinoline-2,4-dione]",VEGF-like activity,[3],positive activity
"C1=C(c2ccccc2)c2ccccc2C1(c1ccccc1)c1ccccc1 [1,1,3-triphenylinedene]",Stimulation at 6-12 micrograms/ml Without HGF/SF,[1]; [9],50-100% stimulation
same,Stimulation at 6-12 micrograms/ml With,[5]; 6-12 micrograms/ml,30-40% stimulation
"Cc1nn(-c2onc(-c3c(Cl)cccc3Cl)c2C(=O)NN)c(C)c1Br [(4-bromo-3,5-dimethyl-1H-pyrazol-1-yl)(3-(2,6-dichlorophenyl)isoxazole-4-carbohydrazide)]",Activity at 2 microgram/ml Without HGF/SF: stimulation,[1]; without HGF/SF,74%
same,Activity at 2 microgram/ml With HGF/SF (result in words),[5]; 2 microgram/ml,No effect
same,Activity at 6 microgram/ml With HGF/SF (result in words),[5]; 6 microgram/ml,No effect
"Cc1nn(C(=O)c2ccc(Cl)cc2)c(C)c1Cc1c(F)cccc1Cl [(4-(2-chloro-6-fluorobenzyl)-3,5-dimethyl-1H-pyrazol-1-yl)(4-chlorophenyl)methanone]",Activity at 2 microgram/ml Without HGF/SF: stimulation,[1]; without HGF/SF,40%
same,activation at 5 µg/mL,"[1]; Homo sapiens, HUVEC, 24 h, 5 microg/ml, stimulation of endothelial cell proliferation",41%
same,activation at 10 µg/mL,"[1]; Homo sapiens, HUVEC, 24 h, 10 microg/ml, stimulation of endothelial cell proliferation",35%
same,inhibition at 6 µg/mL,"[1]; Homo sapiens, 6 microgram/ml, without HGF/SF, inhibition of HUVEC proliferation",50%
same,inhibition at 2 µg/mL,[5]; [7],30%
same,inhibition at 6 µg/mL,[5]; [8],90%
